Assay results as given in patent US9522914B2, “Azole derivative” (TAISHO PHARMACEUTICAL CO., LTD, priority 2011, dated 2016).

Target: Human V1b receptor (Homo sapiens (Human), UniProt P47901)
Experiment: Binding Test for V1b Receptor ([3H]AVP, crude membrane preparation of 293FT cells)
Conditions: inhibition of [3H]AVP binding (0.4 to 1 nmol/L), room temperature, 60 minutes
Procedure: Binding Test for V1b Receptor
Human V1b receptor was transiently expressed in 293FT cells (Invitrogen). The cells were collected and then homogenated in a 15 mmol/L tris-hydrochloric acid buffer (pH 7.4 and containing 2 mmol/L magnesium chloride, 0.3 mmol/L ethylenediaminetetracetic acid, and 1 mmol/L glycol ether diaminetetraacetic acid). The resulting homogenate was centrifuged at 50,000×g at 4° C. for 20 minutes. The precipitate was resuspended in a 75 mmol/L tris-hydrochloric acid buffer (pH 7.4 and containing 12.5 mmol/L magnesium chloride, 0.3 mmol/L ethylenediaminetetracetic acid, 1 mmol/L glycol ether diaminetetraacetic acid, and 250 mmol/L sucrose) to give a crude membrane preparation, which was stored at −80° C. until the binding test was initiated. In the binding test, the crude membrane preparation was diluted with a 50 mmol/L tris-hydrochloric acid buffer (pH 7.4 and containing 10 mmol/L magnesium chloride and 0.1% bovine serum albumin) and mixed with each test compound and [^3H]AVP (final concentration: 0.4 to 1 nmol/L), followed by incubation at room temperature for 60 minutes. The test compound was serially diluted with DMSO so that it would have final concentrations of 0.01 nmol/L to 1 μmol/L at the time of mixing. After the incubation, the mixture was suction filtered through a GF/C filter that was preliminarily impregnated with 0.3% polyethyleneimine. The GF/C filter was dried and after adding a scintillator, the residual radioactivity on the filter was measured using TopCount (PerkinElmer Inc.). The radioactivity in the presence of unlabeled AVP at […] was defined as 0%, and the radioactivity in the absence of unlabeled AVP was defined as 100%. A dose-response curve was plotted from radio activities in the presence of a test compound at various concentrations, and the 50% inhibitory concentration (IC50 value) of the test compound was calculated.

Sequence of Human V1b receptor (P47901 whole entry): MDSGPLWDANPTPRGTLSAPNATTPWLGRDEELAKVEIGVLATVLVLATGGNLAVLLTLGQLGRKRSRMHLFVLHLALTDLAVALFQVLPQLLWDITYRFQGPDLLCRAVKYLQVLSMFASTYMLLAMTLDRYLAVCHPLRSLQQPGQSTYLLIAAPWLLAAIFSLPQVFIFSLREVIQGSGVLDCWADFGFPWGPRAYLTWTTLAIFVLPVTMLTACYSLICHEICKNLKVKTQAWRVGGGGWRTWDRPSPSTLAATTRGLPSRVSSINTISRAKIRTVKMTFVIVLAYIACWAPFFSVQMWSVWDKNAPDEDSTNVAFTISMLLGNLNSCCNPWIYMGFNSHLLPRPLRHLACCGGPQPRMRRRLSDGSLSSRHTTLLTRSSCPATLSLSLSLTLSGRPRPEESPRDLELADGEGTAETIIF

| IC50 | Structure (SMILES) |
| --- | --- |
| 17 nM | CC(C)(C)NC(=O)Cc1nn(-c2ccc(CCN3CCOCC3)cn2)c(=O)n1-c1ccc(F)c(Cl)c1 [Example D-32, N-tert-butyl-2-[4-(3-chloro-4-fluorophenyl)-1-{5-[2-(morpholin-4-yl)ethyl]pyridin-2-yl}-5-oxo-4,5-dihydro-1H-1,2,4-triazol-3-yl]acetamide] |
| 16 nM | COc1cc(-c2nc(-c3ccc(CCN4CCCCC4)cc3)cn2CC(=O)NC(C)C)ccc1F [Example A-09, 2-[2-(4-fluoro-3-methoxyphenyl)-4-{4-[2-(piperidin-1-yl)ethyl]phenyl}-1H-imidazol-1-yl]-N-(propan-2-yl)acetamide] |
| 100 to 1000 nM | COC1CCCN(CCc2ccc(-n3nc(CC(=O)NC(C)C)n(-c4cccc(Cl)c4)c3=O)cc2)C1 [Example D-50, 2-[4-(3-chlorophenyl)-1-{4-[2-(3-methoxypiperidin-1-yl)ethyl]phenyl}-5-oxo-4,5-dihydro-1H-1,2,4-triazol-3-yl]-N-(propan-2-yl)acetamide] |
| 18 nM | CC(C)NC(=O)Cn1cc(-c2ccc(CCN3CCC(CO)C3)cc2)nc1-c1cccc(Cl)c1 (stereo not drawn) [Example A-07, 2-[2-(3-chlorophenyl)-4-(4-{2-[3-(hydroxymethyl)pyrrolidin-1-yl]ethyl}phenyl)-1H-imidazol-1-yl]-N-(propan-2-yl)acetamide] |
| 20 nM | CC(C)NC(=O)Cc1nn(-c2ccc(CCN3CCOCC3)c(F)c2)c(=O)n1-c1cccc(Cl)c1 [Example D-20, 2-[4-(3-chlorophenyl)-1-{3-fluoro-4-[2-(morpholin-4-yl)ethyl]phenyl}-5-oxo-4,5-dihydro-1H-1,2,4-triazol-3-yl]-N-(propan-2-yl)acetamide] |
| 13 nM | CC(C)NC(=O)Cc1cn(-c2ccc(CCN3CCCCC3)cc2)nc1-c1cccc(Cl)c1 [Example C-02, 2-[3-(3-chlorophenyl)-1-{4-[2-(piperidin-1-yl)ethyl]phenyl}-1H-pyrazol-4-yl]-N-(propan-2-yl)acetamide] |
| < 10 nM | COc1cccc(-c2nc(-c3ccc(CCN4CC5(COC5)C4)cc3)nn2CC(=O)NC(C)C)c1 [Example B-42, 2-[5-(3-methoxyphenyl)-3-{4-[2-(2-oxa-6-azaspiro[3.3]hept-6-yl)ethyl]phenyl}-1H-1,2,4-triazol-1-yl]-N-(propan-2-yl)acetamide] |
| 10 to 100 nM | CC(C)NC(=O)Cc1nn(-c2ccc(CCN3CCC(F)CC3)cc2)c(=O)n1-c1cccc(Cl)c1 [Example D-57, 2-[4-(3-chlorophenyl)-1-{4-[2-(4-fluoropiperidin-1-yl)ethyl]phenyl}-5-oxo-4,5-dihydro-1H-1,2,4-triazol-3-yl]-N-(propan-2-yl)acetamide] |
| 10 to 100 nM | CC(C)NC(=O)Cc1nn(-c2ccc(CCN3CCOCC3C)cc2)c(=O)n1-c1cccc(Cl)c1 [Example D-53, 2-[4-(3-chlorophenyl)-1-{4-[2-(3-methylmorpholin-4-yl)ethyl]phenyl}-5-oxo-4,5-dihydro-1H-1,2,4-triazol-3-yl]-N-(propan-2-yl)acetamide] |
| 10 to 100 nM | COc1cccc(-c2nc(-c3ccc(CCN4CCCCC4)cc3)cn2CC(=O)NC(C)C)c1 [Example A-37, 2-[2-(3-methoxyphenyl)-4-{4-[2-(piperidin-1-yl)ethyl]phenyl}-1H-imidazol-1-yl]-N-(propan-2-yl)acetamide] |
| 12 nM | CC(C)NC(=O)Cn1nc(-c2ccc(CCN3CCOCC3)cn2)nc1-c1cccc(Cl)c1 [Example B-10, 2-[5-(3-chlorophenyl)-3-{5-[2-(morpholin-4-yl)ethyl]pyridin-2-yl}-1H-1,2,4-triazol-1-yl]-N-(propan-2-yl)acetamide] |
| 100 to 1000 nM | COc1cccc(-c2nc(-c3ccc(CCN4CCN(C)CC4)cc3)nn2CC(=O)NC(C)C)c1 [Example B-32, 2-[5-(3-methoxyphenyl)-3-{4-[2-(4-methylpiperazin-1-yl)ethyl]phenyl}-1H-1,2,4-triazol-1-yl]-N-(propan-2-yl)acetamide] |
| 20 nM | COc1cccc(-c2nc(-c3ccc(CCN4CCOCC4)cc3)c(C)n2CC(=O)NC(C)C)c1 [Example A-36, 2-[2-(3-methoxyphenyl)-5-methyl-4-{4-[2-(morpholin-4-yl)ethyl]phenyl}-1H-imidazol-1-yl]-N-(propan-2-yl)acetamide] |
| 10 to 100 nM | COc1cc(-c2nc(-c3ccc(CCN4CCC(OC)C4)cc3)cn2CC(=O)NC(C)C)ccc1F (stereo not drawn) [Example A-17, 2-[2-(4-fluoro-3-methoxyphenyl)-4-{4-[2-(3-methoxypyrrolidin-1-yl)ethyl]phenyl}-1H-imidazol-1-yl]-N-(propan-2-yl)acetamide] |
| 3.9 nM | CC(C)NC(=O)Cc1oc(-c2ccc(CCN3CCOCC3)cc2)nc1-c1cccc(Cl)c1 [Example C-11, 2-[4-(3-chlorophenyl)-2-{4-[2-(morpholin-4-yl)ethyl]phenyl}-1,3-oxazol-5-yl]-N-(propan-2-yl)acetamide] |
| 7.1 nM | CC(C)NC(=O)Cn1nc(-c2ccc(CCN3CCOCC3)cc2)cc1-c1cccc(Cl)c1 [Example C-07, 2-[5-(3-chlorophenyl)-3-{4-[2-(morpholin-4-yl)ethyl]phenyl}-1H-pyrazol-1-yl]-N-(propan-2-yl)acetamide] |
| 100 to 1000 nM | CC(C)NC(=O)Cn1cc(-c2cccc(OCCCN3CCCCC3)c2)nc1-c1cccc(Cl)c1 [Example A-35, 2-[2-(3-chlorophenyl)-4-{3-[3-(piperidin-1-yl)propoxy]phenyl}-1H-imidazol-1-yl]-N-(propan-2-yl)acetamide] |
| 10 to 100 nM | COc1cccc(-c2nc(-c3ccc(CCN4CCCC(OC)C4)cc3)nn2CC(=O)NC(C)C)c1 (stereo not drawn) [Example B-25, 2-[5-(3-methoxyphenyl)-3-{4-[2-(3-methoxypiperidin-1-yl)ethyl]phenyl}-1H-1,2,4-triazol-1-yl]-N-(propan-2-yl)acetamide] |
| 12 nM | COc1cc(-n2nc(CC(=O)NC(C)C)n(-c3cccc(Cl)c3)c2=O)ccc1CCN1CCOCC1 [Example D-22, 2-[4-(3-chlorophenyl)-1-{3-methoxy-4-[2-(morpholin-4-yl)ethyl]phenyl}-5-oxo-4,5-dihydro-1H-1,2,4-triazol-3-yl]-N-(propan-2-yl)acetamide] |
| 10 to 100 nM | COc1cccc(-c2nc(-c3ccc(CCN4CCC(C)CC4)cc3)nn2CC(=O)NC(C)C)c1 [Example B-23, 2-[5-(3-methoxyphenyl)-3-{4-[2-(4-methylpiperidin-1-yl)ethyl]phenyl}-1H-1,2,4-triazol-1-yl]-N-(propan-2-yl)acetamide] |
| 10 to 100 nM | COc1cccc(-c2nc(-c3ccc(CCN4CCC(F)(F)CC4)cc3)nn2CC(=O)NC(C)C)c1 [Example B-40, 2-[3-{4-[2-(4,4-difluoropiperidin-1-yl)ethyl]phenyl}-5-(3-methoxyphenyl)-1H-1,2,4-triazol-1-yl]-N-(propan-2-yl)acetamide] |
| 0.49 nM | CC(C)NC(=O)Cn1cc(-c2ccc(CCN3CCOCC3)cc2F)nc1-c1cccc(Cl)c1 [Example A-43, 2-[2-(3-chlorophenyl)-4-{2-fluoro-4-[2-(morpholin-4-yl)ethyl]phenyl}-1H-imidazol-1-yl]-N-(propan-2-yl)acetamide] |
| 100 to 1000 nM | CC(C)NC(=O)Cc1nn(-c2ccc(CCN3C[C@@H](C)O[C@@H](C)C3)cc2)c(=O)n1-c1cccc(Cl)c1 [Example D-52, 2-[4-(3-chlorophenyl)-1-(4-{2-[(2R,6S)-2,6-dimethylmorpholin-4-yl]ethyl}phenyl)-5-oxo-4,5-dihydro-1H-1,2,4-triazol-3-yl]-N-(propan-2-yl)acetamide] |

| Structure (SMILES) | IC50 |
| --- | --- |
| COc1cccc(-n2c(CC(=O)NC(C)(C)C)nn(-c3ccc(CCN4C5CCC4COC5)cc3)c2=O)c1 [Example D-07, N-tert-butyl-2-[4-(3-methoxyphenyl)-1-{4-[2-(3-oxa-8-azabicyclo[3.2.1]oct-8-yl)ethyl]phenyl}-5-oxo-4,5-dihydro-1H-1,2,4-triazol-3-yl]acetamide] | 5.5 nM |
| COc1cc(-n2c(CC(=O)NC(C)C)nn(-c3ccc(CCN4C5CCC4COC5)cn3)c2=O)ccc1F [Example D-38, 2-[4-(4-fluoro-3-methoxyphenyl)-1-{5-[2-(3-oxa-8-azabicyclo[3.2.1]oct-8-yl)ethyl]pyridin-2-yl}-5-oxo-4,5-dihydro-1H-1,2,4-triazol-3-yl]-N-(propan-2-yl)acetamide] | 10 to 100 nM |
| COc1cc(-n2nc(CC(=O)NC(C)C)n(-c3cccc(Cl)c3)c2=O)ccc1CCN1C2CCC1COC2 [Example D-23, 2-[4-(3-chlorophenyl)-1-{3-methoxy-4-[2-(3-oxa-8-azabicyclo[3.2.1]oct-8-yl)ethyl]phenyl}-5-oxo-4,5-dihydro-1H-1,2,4-triazol-3-yl]-N-(propan-2-yl)acetamide] | 3.3 nM |
| CC(C)(C)NC(=O)Cc1nn(-c2ccc(CCN3C4CCC3COC4)cn2)c(=O)n1-c1ccc(F)c(Cl)c1 [Example D-33, N-tert-butyl-2-[4-(3-chloro-4-fluorophenyl)-1-{5-[2-(3-oxa-8-azabicyclo[3.2.1]oct-8-yl)ethyl]pyridin-2-yl}-5-oxo-4,5-dihydro-1H-1,2,4-triazol-3-yl]acetamide] | 9.1 nM |
